The text below walks through data of patent US10940129B2, “Method of treatment for reducing pain sensitization” (priority 2018, dated 2021).

Changes are numbered by the printed parent chain. Like-named read-outs stand apart in the source and are kept apart here.

Data set [1] concerns glutathione content of cells. As to conditions: daily dosage of 1000 mg; patients; cited from earlier work.
Data set [2] has as its target TRPA1 (Homo sapiens, UniProt O75762). Nature of the data set: TRPA1 agonist activity.
For the next data set, the target named is T1, mouse TRPA1 (Mus musculus, UniProt Q8BLA8).
T1 construct: expressed in transfected cells; host or cells: HEK 293
The settings on record: HEK 293 cells transfected with mouse TRPA1; cited from earlier work.

Data set [3] in a line: Computed Log P (PubChem, XLogP3-AA algorithm). The settings on record: worked out from Log P. The text has this: Partition coefficient; Log P: The ratio of the concentrations of a solute between two solvents. When one of the solvents is non-polar and the other is water, this is a measure of lipophilicity and the logarithm of the ratio is Log P. Unless otherwise specified, the Log P values reported herein are from the National Library of Medicine “PubChem” database (which uses the XLogP3-AA algorithm for Log P determination).

Another data set has as its system chronic pain. Put plainly: Self-reports of voluntary evaluators taking Protein-Allium (10 point pain scale, symptoms, side effects).
Data set [4] concerns formaldehyde induced pain and toxicity. As to conditions: [Bai, 2012], [Song, 2010]; cited from earlier work.
For data set [5], the system named is wild-type and mutant mice. The settings on record: 10 to 40 minutes; formalin (2% aqueous formaldehyde) into the paw; both wild-type and mutant mice; cited from earlier work.
Another data set deals with ALDH2*1/*2 mice. As to conditions: 1.2 g stimulus level, 3 hours after carrageenan; cited from earlier work.
Another data set has as its target T2, ALDH2*2 (Homo sapiens, UniProt P05091, E504K).
T2 sequence (P05091 18-517 E504K): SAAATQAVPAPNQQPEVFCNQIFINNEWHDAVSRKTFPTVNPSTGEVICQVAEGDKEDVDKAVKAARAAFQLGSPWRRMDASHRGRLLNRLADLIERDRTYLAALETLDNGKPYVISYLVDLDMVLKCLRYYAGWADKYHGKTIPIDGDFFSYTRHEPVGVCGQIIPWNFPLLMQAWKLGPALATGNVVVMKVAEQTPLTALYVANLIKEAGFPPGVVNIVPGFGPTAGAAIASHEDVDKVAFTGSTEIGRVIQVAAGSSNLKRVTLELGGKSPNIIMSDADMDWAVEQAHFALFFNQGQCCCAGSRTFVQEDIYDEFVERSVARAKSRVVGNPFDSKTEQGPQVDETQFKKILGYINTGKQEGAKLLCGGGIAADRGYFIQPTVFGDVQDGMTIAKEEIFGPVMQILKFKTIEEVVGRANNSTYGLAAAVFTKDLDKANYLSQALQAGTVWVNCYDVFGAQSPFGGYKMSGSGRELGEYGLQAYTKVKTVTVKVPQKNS
The settings on record: [Chen, 2008]; cited from earlier work.

For another data set, the target named is T3, ALDH2*1 (Homo sapiens, UniProt P05091).
T3 sequence (P05091 18-517): T2 sequence (P05091 18-517 E504K) with K487E
The settings on record: [Perez-Miller, 2010]; cited from earlier work.

Data set [6] has as its system ALDH2*1/*2 mutant and wild-type mice. As to conditions: cited from earlier work; for licking or flinching: 100 ng into a rear paw.
A further data set deals with mice. The settings on record: low dose into the hind paws; zero degree cold plate; vehicle 125 seconds; cited from earlier work.
Data set [7] has as its system TRPA1. As to conditions: low level of 4-HNE; 25 degrees C. to 10 degrees; cited from earlier work.
Another data set relates to male rats. As to conditions: 5 day course started 10 days after chronic constriction injury; cited from earlier work.

T1 sequence (Q8BLA8 whole entry): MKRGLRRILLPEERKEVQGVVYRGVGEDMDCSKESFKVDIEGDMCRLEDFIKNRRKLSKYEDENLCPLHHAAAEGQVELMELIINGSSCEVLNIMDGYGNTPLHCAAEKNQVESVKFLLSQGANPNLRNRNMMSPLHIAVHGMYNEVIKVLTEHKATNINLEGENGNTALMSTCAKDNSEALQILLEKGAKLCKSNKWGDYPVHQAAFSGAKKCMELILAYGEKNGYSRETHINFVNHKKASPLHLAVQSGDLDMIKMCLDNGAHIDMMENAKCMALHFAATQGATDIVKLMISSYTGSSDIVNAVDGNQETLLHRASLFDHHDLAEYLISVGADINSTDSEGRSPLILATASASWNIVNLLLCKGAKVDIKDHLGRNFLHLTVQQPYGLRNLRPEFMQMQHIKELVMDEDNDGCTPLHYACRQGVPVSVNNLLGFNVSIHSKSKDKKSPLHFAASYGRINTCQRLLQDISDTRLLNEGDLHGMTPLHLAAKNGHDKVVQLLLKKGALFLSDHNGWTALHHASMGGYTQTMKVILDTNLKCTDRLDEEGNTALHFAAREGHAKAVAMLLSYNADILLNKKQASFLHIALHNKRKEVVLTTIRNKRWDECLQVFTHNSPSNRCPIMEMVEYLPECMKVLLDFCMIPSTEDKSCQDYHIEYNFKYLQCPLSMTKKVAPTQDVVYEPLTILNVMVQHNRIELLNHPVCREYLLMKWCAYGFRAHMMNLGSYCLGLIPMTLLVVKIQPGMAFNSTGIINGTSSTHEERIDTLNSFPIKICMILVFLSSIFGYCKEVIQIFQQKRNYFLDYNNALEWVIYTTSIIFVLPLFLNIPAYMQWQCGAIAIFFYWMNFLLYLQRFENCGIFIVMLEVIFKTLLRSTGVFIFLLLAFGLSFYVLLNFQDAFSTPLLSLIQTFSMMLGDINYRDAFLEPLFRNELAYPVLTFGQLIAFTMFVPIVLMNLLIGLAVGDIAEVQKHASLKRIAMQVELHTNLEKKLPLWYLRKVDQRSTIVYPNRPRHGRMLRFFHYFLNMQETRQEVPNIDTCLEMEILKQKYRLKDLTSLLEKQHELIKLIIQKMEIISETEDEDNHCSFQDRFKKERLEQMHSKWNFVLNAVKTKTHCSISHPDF
Chain of TRPA1 (Homo sapiens, UniProt O75762) (O75762 whole entry, species assumed): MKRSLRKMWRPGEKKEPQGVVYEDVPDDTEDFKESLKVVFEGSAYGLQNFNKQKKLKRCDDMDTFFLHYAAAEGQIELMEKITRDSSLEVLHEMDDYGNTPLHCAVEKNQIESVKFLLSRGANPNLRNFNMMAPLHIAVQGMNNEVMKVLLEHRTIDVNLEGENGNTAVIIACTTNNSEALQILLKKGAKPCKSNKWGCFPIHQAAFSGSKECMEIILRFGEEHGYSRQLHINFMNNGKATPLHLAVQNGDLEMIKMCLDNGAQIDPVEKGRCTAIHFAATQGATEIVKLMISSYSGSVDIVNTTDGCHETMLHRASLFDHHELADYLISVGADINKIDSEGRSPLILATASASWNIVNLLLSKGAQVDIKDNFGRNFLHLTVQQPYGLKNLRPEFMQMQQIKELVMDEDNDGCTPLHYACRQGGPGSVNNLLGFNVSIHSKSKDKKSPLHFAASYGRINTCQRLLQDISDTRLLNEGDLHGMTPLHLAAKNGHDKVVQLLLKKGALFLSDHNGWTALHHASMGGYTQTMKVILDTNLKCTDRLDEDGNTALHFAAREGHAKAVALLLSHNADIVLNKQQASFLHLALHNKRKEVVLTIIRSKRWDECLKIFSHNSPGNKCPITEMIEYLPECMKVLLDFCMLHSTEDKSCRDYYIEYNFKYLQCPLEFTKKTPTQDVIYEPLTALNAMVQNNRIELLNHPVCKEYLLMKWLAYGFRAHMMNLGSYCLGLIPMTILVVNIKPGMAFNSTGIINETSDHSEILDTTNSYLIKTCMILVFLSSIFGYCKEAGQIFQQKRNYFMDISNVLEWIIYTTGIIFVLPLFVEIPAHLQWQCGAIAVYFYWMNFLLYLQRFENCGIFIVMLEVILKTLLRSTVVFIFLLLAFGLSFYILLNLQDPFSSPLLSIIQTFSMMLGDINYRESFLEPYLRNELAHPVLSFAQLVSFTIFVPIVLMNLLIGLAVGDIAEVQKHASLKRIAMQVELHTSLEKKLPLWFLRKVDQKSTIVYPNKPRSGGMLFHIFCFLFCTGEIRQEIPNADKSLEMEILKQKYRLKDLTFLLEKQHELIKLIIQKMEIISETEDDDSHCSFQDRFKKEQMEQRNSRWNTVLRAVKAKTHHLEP
Description for chronic pain: On a 10 point pain scale the pain level was 10.
On a 10 point pain scale, the pain level was 10.

For the compound `O=C1O[C@H]([C@@H](O)CO)C(O)=C1O` [vitamin C], the “mean percentage decrease of glutathione” value in [1] is listed as 60%.
For `CCCCC/C=C/C=C1/C(=O)C=C[C@@H]1C/C=C\CCCC(=O)O` [15d-PGJ2], the “more active than 4-HNE” value on TRPA1 [2] is ~10.
On to `CC12CCC(CC1=O)C2(C)C` (centres unmarked) [camphor], for which, on mouse TRPA1, the “effect on H2O2-induced Ca^2+ increase” value is “prevents”.
For catalase, the “effect on H2O2-induced Ca^2+ increase” value at mouse TRPA1 is recorded as “abolished”.
`C=CCSSCC=C` [Diallyl disulfide]: the “concentration on the oily (lipid) side relative to the aqueous side” value in data set [3] was “about 160 times”.
For the compound `COc1ccc2cc([C@H](C)C(=O)O)ccc2c1` [Naprosyn], the “pain level, adenomyosis” value in the data set on chronic pain (10-point pain scale, subject two) is given as 4.
With `NNCCc1ccccc1` [Phenelzine], the “reducing formaldehyde induced pain and toxicity” value in [4] is “effective”.
In the case of `NCC1(CC(=O)O)CCCCC1` [Gabapentin], in the data set with chronic pain (self-report), the side effects result was “bad side effects (drowsiness)”. In addition, the “muscle memory (residual pain), shoulder neuropathy” value in the data set with chronic pain (subject two) is recorded as “always had muscle memory of the pain”.
`O=C(NCc1ccc2c(c1)OCO2)c1c(Cl)cccc1Cl` [Alda-1]: the “decrease of early second phase pain response” value in data set [5] is ~60%. Moreover, the “less sensitive to mechanical pain than wild-type mice without treatment” value with ALDH2*1/*2 mice was ~30%. Further, the “increase of the activity of ALDH2*2” value on ALDH2*2 is 2.2 fold. Also, the “efficiency of ALDH2*1” value at ALDH2*1 was “doubles”.
Turning to `CCCS` [Propyl mercaptan, 1-PropaneThiol], in data set [3], the “concentration on the oily (lipid) side relative to the aqueous side” value was “about 65 times”.
With `c1ccc(SSc2ccccn2)nc1` [2,2′-dipyridyl disulfide], the “intracellular Ca^2+” value on mouse TRPA1 is “increased intracellular Ca^2+ in a dose-dependent manner”.
`CC=O` [acetylaldehyde]: the licking or flinching is 5 s in [6] (mutant mice) and 4 s in [6] (wild-type mice). Also, the “mutant mice more sensitive to pressure (nociceptive threshold)” value in data set [6] (after injection, mutant vs wild-type mice) was 4 times.
Take `CCCSSCCC` [disulfide from propyl mercaptan, dipropyl disulfide]: the “concentration on the oily (lipid) side relative to the aqueous side” value in data set [3] is “about 500 times”.
For the compound `O[C@H](CS)[C@H](O)CS` (racemic) [dithiothreitol], at mouse TRPA1, the “effect on H2O2-induced Ca^2+ increase” value is reported as “markedly decreased”.
As to `CCCCCC(O)C=CC=O` (centres unmarked) [4-hydroxy-2-nonenal (4-HNE), 4-hydroxy-2-nonenal], the “time to first jump” value with mice was 20 s. Moreover, the “potentiation of current flow by lowering the temperature” value with TRPA1 [7] was 3 factor.
Regarding `N[C@@H](CCS)C(=O)O` [Homocysteine, (S)-2-Amino-4-mercaptobutyric acid], the “more hydrophilic than cysteine” value in data set [3] is recorded as ~10 ×.
In the case of `C[C@]12CCC(=O)C=C1CC[C@@H]1[C@@H]2C(=O)C[C@@]2(C)[C@H]1CC[C@]2(O)C(=O)CO` [cortisone], the “benefit on back pain” value in the data set on chronic pain (injection, subject one) was “minimal benefit”.
For the compound `CN1CC[C@]23c4c5ccc(O)c4O[C@H]2[C@@H](O)C=C[C@H]3[C@H]1C5` [morphine], the “duration of injury-related allodynia” value in the data set with male rats is on record as “more than doubling”.
Turning to `N[C@@H](CS)C(=O)O` [cysteine, (R)-2-Amino-3-mercaptopropanoic acid], in data set [3], the “partitions into water vs. oil” value is listed as ~300 to 1.
